Assay results: US9969687B2, “Compounds useful as CCR9 modulators” (Norgine B.V., priority 2013, dated 2018)

Experiments:
CCR9 [1] = target: T1, CCR9 (Homo sapiens (Human), UniProt P51686); test: FLIPR calcium flux assay using hCCR9 over expressed cells (Chem1-hCCR9), TECK stimulation; type: cell-based; conditions: Chem1-hCCR9 overexpressing cells
Experimental: Biological Activity: FLIPR Assay Using hCCR9 Over Expressed Cells
A calcium flux assay was used to determine the ability of the compounds to interfere with the binding between CCR9 and its chemokine ligand (TECK) in Chem1-hCCR9 overexpressing cells. hCCR9 overexpressing cells were seeded (25,000 cells/well) into black Poly-D-Lysine coated clear bottom 96-well plates (BD Biosciences, Cat #356640) and incubated overnight at 37° C./5% CO2 in a humidified incubator. Media was aspirated and cells washed twice with 100 μL assay buffer (1×HBSS, 20 mM HEPES) containing 2.5 mM Probenecid. A 0.3× Fluo-4 NW calcium dye was prepared in assay buffer containing 5 mM Probenecid and stored in the dark. Each well was loaded with 100 μL of 0.3× Fluo-4 NW calcium dye and incubated at 37° C./5% CO2 for 60 minutes and then at room temperature for 30 minutes. A half-log serially diluted concentration response curve was prepared at a 3× final assay concentration for each compound (10 μM-0.1 nM final assay concentration) and 50 μL of the compound then transferred to the cells (150 μL final volume) for 60 minutes prior to stimulation (30 minutes at 37° C./5% CO2 and 30 minutes at room temperature). TECK was diluted to 4× its EC80 in assay buffer (containing 0.1% [w/v] bovine serum albumin [BSA]) and 50 μL dispensed through the fluorometric imaging plate reader (FLIPR) instrument to stimulate the cells (200 μL final volume). The increase in intracellular calcium levels was measured with the FLIPR instrument. The potency of the compound as a CCR9 antagonist was calculated as an IC50 using GraphPad Prism software (variable slope four parameter). The Ki of the compound was determined from the IC50 values using the following equation. IC50/1+(Agonist (TECK) conc. used in assay/EC50 of agonist (TECK) generated on day of experiment) Ki calculation: […]

CCR9 [2] = target: T1, CCR9; test: FLIPR calcium flux assay using MOLT4 cells, TECK stimulation; type: cell-based; conditions: MOLT4 cells (human T-cell line)
Experimental: Biological Activity: FLIPR Assay Using MOLT4 Cells
A calcium flux assay was used to determine the ability of the compounds to interfere with the binding between CCR9 and its chemokine ligand (TECK) in MOLT4 cells (a human T-cell line). MOLT4 cells were seeded (100,000 cells/well) in corning cell culture plates (Cat #3603) in assay buffer (1×HBSS, 20 mM HEPES) containing 2.5 mM Probenecid. The plate was centrifuged at 1200 rpm for 3 minutes and incubated at 37° C./5% CO2 for 2 hours. A 0.3× Fluo-4 NW calcium dye was prepared in assay buffer containing 5 mM Probenecid and stored in the dark. Each well was loaded with 25 μl of 0.3× Fluo-4 NW calcium dye and incubated at 37° C./5% CO2 for 60 minutes and then at room temperature for 30 minutes. A half-log serially diluted concentration response curve was prepared at a 4× concentration for each (10 μM-0.1 nM final assay concentration) and 25 μL of the compound then transferred to the cells (100 μL final volume) for 60 minutes prior to stimulation (30 minutes at 37° C./5% CO2 and 30 minutes at room temperature). […] The increased in intracellular calcium levels was measured with the FLIPR instrument. The potency of the compound as CCR9 antagonist was calculated as an IC50 using GraphPad Prism software (variable slope four parameter). The Ki of the compound was determined from the IC50 values using the following equation. IC50/1+(Agonist (TECK) conc. used in assay/EC50 of agonist (TECK) generated on day of experiment) Ki calculation: […]

T1 sequence (P51686 whole entry): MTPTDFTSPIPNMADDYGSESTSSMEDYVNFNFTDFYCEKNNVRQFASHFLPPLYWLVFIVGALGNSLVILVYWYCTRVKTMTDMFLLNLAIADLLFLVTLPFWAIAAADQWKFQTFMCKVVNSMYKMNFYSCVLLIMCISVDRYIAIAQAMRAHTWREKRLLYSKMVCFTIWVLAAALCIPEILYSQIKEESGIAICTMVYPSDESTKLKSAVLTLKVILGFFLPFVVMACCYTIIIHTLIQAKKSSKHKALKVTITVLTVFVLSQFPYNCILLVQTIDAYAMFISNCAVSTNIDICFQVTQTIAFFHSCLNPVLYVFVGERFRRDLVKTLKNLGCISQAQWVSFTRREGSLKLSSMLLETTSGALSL

Row | SMILES | Ki (CCR9 [1]) [nM] | Ki (CCR9 [2]) [nM]
1 | CC(C)(C)c1ccc(S(=O)(=O)Nc2ccc(Cl)c3c2C(=O)N(Cc2ncccn2)C3=O)cc1 [Compound 204] | 30 | 7
2 | Cc1ccc(N2C(=O)c3c(Cl)ccc(NS(=O)(=O)c4ccc(C(C)(C)C)cc4)c3C2=O)cn1 [Compound 182] | 58 | 19
3 | COC(=O)c1cc(N2C(=O)c3c(Cl)ccc(NS(=O)(=O)c4ccc(C(C)(C)C)cc4)c3C2=O)n(C)n1 [Compound 291] | 15 | 5
4 | COc1c[n+]([O-])cc(N2C(=O)c3c(Cl)ccc(NS(=O)(=O)c4ccc(C(C)(C)C)cc4)c3C2=O)c1C [Compound 245] | 54 | 47
5 | CC(C)(C)c1ccc(S(=O)(=O)Nc2ccc(Cl)c3c2C(=O)N(c2cccnc2)C3=O)cc1 [Compound 43, 4-(tert-butyl)-N-(7-chloro-1,3-dioxo-2-(pyridin-3-yl)isoindolin-4-yl)benzenesulfonamide] | 42 | 25
6 | COc1cncc(N2C(=O)c3c(Cl)ccc(NS(=O)(=O)c4ccc(C(C)(C)C)cc4)c3C2=O)c1C [Compound 242] | 56 | 18
7 | O=C1c2c(Cl)ccc(NS(=O)(=O)c3ccc(C(F)(F)F)cc3)c2C(=O)N1c1cccnc1 [Compound 47] | 309 | 34
8 | Cc1ccc(N2C(=O)c3c(Cl)ccc(NS(=O)(=O)c4ccc(C(C)(C)C)cc4)c3C2=O)c(C)[n+]1[O-] [Compound 227] | 32 | 14
9 | Cn1cnc(N2C(=O)c3c(Cl)ccc(NS(=O)(=O)c4ccc(C(C)(C)C)cc4)c3C2=O)n1 [Compound 255] | 72 | 17
10 | Cc1c(N2C(=O)c3c(Cl)ccc(NS(=O)(=O)c4ccc(C(C)(C)C)cc4)c3C2=O)ccc[n+]1[O-] [Compound 176, 3-(4-(4-(tert-butyl)phenylsulfonamido)-7-chloro-1,3-dioxoisoindolin-2-yl)-2-methylpyridine 1-oxide] | 13 | 6
11 | O=C1c2cccc(NS(=O)(=O)c3ccc(C(F)(F)F)cc3)c2C(=O)N1c1cccnc1 [Compound 6] | 5630 | –
12 | N#Cc1cccc(CN2C(=O)c3c(Cl)ccc(NS(=O)(=O)c4ccc(Cl)c(C(F)(F)F)c4)c3C2=O)c1 [Compound 132] | – | 252
13 | COc1ccc(N2C(=O)c3c(Cl)ccc(NS(=O)(=O)c4ccc(C(C)(C)C)cc4)c3C2=O)cn1 [Compound 118, 4-(tert-butyl)-N-(7-chloro-2-(6-methoxypyridin-3-yl)-1,3-dioxoisoindolin-4-yl)benzenesulfonamide] | – | 78
14 | Cc1ccc(NS(=O)(=O)c2ccc(OC(F)(F)F)cc2)c2c1C(=O)N(Cc1cccnc1)C2=O [Compound 162] | – | 1000
15 | Cc1ccc(CN2C(=O)c3c(Cl)ccc(NS(=O)(=O)c4ccc(C(C)(C)C)cc4)c3C2=O)c(C)n1 [Compound 248] | – | 70
16 | CC(C)c1ccc(S(=O)(=O)Nc2ccc(Cl)c3c2C(=O)N(Cc2cccnc2)C3=O)cc1 [Compound 80] | – | 173
17 | CC(C)(C#N)c1ccc(S(=O)(=O)Nc2ccc(Cl)c3c2C(=O)N(Cc2ccc[n+]([O-])c2)C3=O)cc1 [Compound 81] | – | 148
18 | COc1cnc(N2C(=O)c3c(Cl)ccc(NS(=O)(=O)c4ccc(C(C)(C)C)cc4)c3C2=O)cc1C [Compound 268] | – | 54
19 | CCOc1cccc(N2C(=O)c3c(Cl)ccc(NS(=O)(=O)c4ccc(C(C)(C)C)cc4)c3C2=O)[n+]1[O-] [Compound 210] | – | 44
20 | N#Cc1cccc(N2C(=O)c3cccc(NS(=O)(=O)c4ccc(Cl)c(C(F)(F)F)c4)c3C2=O)c1 [Compound 41] | – | 167
21 | O=C1c2c(Cl)ccc(NS(=O)(=O)c3ccc(C(F)(F)F)cc3)c2C(=O)N1c1cncnc1 [Compound 140] | – | 216
22 | O=C1c2cccc(NS(=O)(=O)c3ccc(Cl)c(C(F)(F)F)c3)c2C(=O)N1c1cccnc1 [Compound 7] | – | 206

Row | SMILES | Ki (CCR9 [1]) [nM] | Ki (CCR9 [2]) [nM]
23 | COc1cc(N2C(=O)c3c(Cl)ccc(NS(=O)(=O)c4ccc(C(C)(C)C)cc4)c3C2=O)c[n+]([O-])c1 [Compound 91, 3-(4-(4-(tert-butyl)phenylsulfonamido)-7-chloro-1,3-dioxoisoindolin-2-yl)-5-methoxypyridine 1-oxide] | – | 50
24 | Cc1ccc(CN2C(=O)c3c(Cl)ccc(NS(=O)(=O)c4ccc(C(C)(C)C)cc4)c3C2=O)cn1 [Compound 215] | – | 85
25 | Cc1ccc(CN2C(=O)c3c(Cl)ccc(NS(=O)(=O)c4ccc(C(C)(C)C)cc4)c3C2=O)c(C)[n+]1[O-] [Compound 252] | – | 33
26 | COc1ccc(N2C(=O)c3c(Cl)ccc(NS(=O)(=O)c4ccc(C(C)(C)C)cc4)c3C2=O)c[n+]1[O-] [Compound 180] | – | 78
27 | CC(C)(C)c1ccc(S(=O)(=O)Nc2ccc(Cl)c3c2C(=O)N(CCc2cccnc2)C3=O)cc1 [Compound 116, 4-(tert-butyl)-N-(7-chloro-1,3-dioxo-2-(2-(pyridin-3-yl)ethyl)isoindolin-4-yl)benzenesulfonamide] | – | 100
28 | COc1cncc(N2C(=O)c3c(Cl)ccc(NS(=O)(=O)c4ccc(Cl)c(C(F)(F)F)c4)c3C2=O)c1 [Compound 93] | – | 217
29 | COc1nc(C)ccc1CN1C(=O)c2c(Cl)ccc(NS(=O)(=O)c3ccc(C(C)(C)C)cc3)c2C1=O [Compound 253] | – | 41
30 | CC(C)(C)c1ccc(S(=O)(=O)Nc2ccc(C#N)c3c2C(=O)N(Cc2ccc[n+]([O-])c2)C3=O)cc1 [Compound 280] | – | 37
31 | N#Cc1cccc(N2C(=O)c3cccc(NS(=O)(=O)c4ccc(C(F)(F)F)cc4)c3C2=O)c1 [Compound 39] | – | 611
32 | CC(C)(C#N)c1ccc(S(=O)(=O)Nc2ccc(Cl)c3c2C(=O)N(Cc2cccnc2)C3=O)cc1 [Compound 79] | – | 33
33 | CC(C)c1ccc(S(=O)(=O)Nc2ccc(Cl)c3c2C(=O)N(c2cccc(C#N)c2)C3=O)cc1 [Compound 125] | – | 243
34 | CC(C)(C)c1ccc(S(=O)(=O)Nc2ccc(Cl)c3c2C(=O)N(c2cncc(C#N)c2)C3=O)cc1 [Compound 177] | – | 73
35 | Cc1cncc(N2C(=O)c3c(Cl)ccc(NS(=O)(=O)c4ccc(C(C)C)cc4)c3C2=O)c1 [Compound 105] | – | 311
36 | O=C1c2cccc(NS(=O)(=O)c3ccc(F)c(C(F)(F)F)c3)c2C(=O)N1c1cccnc1 [Compound 8] | – | 1320
37 | CC(C)(C)c1ccc(S(=O)(=O)Nc2ccc(Cl)c3c2C(=O)N(C(C)(C)c2cccnc2)C3=O)cc1 [Compound 107, 4-(tert-butyl)-N-(7-chloro-1,3-dioxo-2-(2-(pyridin-3-yl)propan-2-yl)isoindolin-4-yl)benzenesulfonamide] | – | 318
38 | CC(C)(C)c1ccc(S(=O)(=O)Nc2ccc(Cl)c3c2C(=O)N(c2cncs2)C3=O)cc1 [Compound 178] | – | 164
39 | COc1cncc(N2C(=O)c3c(Cl)ccc(NS(=O)(=O)c4ccc(C(F)(F)F)cc4)c3C2=O)c1 [Compound 92] | – | 255
40 | CC(C)(C)c1ccc(S(=O)(=O)Nc2ccc(Cl)c3c2C(=O)N(c2nccs2)C3=O)cc1 [Compound 146] | – | 154
41 | CC(C)(C)c1cccc(S(=O)(=O)Nc2cccc3c2C(=O)N(Cc2cccnc2)C3=O)c1 [Compound 14] | – | 1550
42 | O=C1c2cccc(NS(=O)(=O)c3ccc(C(F)(F)F)cc3)c2C(=O)N1Cc1cccnc1 [Compound 19] | – | 758
43 | CC(C)c1ccc(S(=O)(=O)Nc2ccc(Cl)c3c2C(=O)N(c2cccnc2)C3=O)cc1 [Compound 57] | – | 38
